From PubChem BioAssay (NCI) come the findings set out here.

Some test systems named below: SF-539 CNS; IGROV1 ovarian; EKVX NSCLC; SK-OV-3 ovarian; SK-MEL-5 melanoma; CAKI-1 renal; RXF 393 renal; SNB-75 CNS; ACHN renal; OVCAR-4 ovarian.
Assay in all cases: NCI anticancer screen, dose series, 48 h

Molecules are shown by their SMILES.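 Five concentrations, 48 hours, 96-well plates. At the TGI there is no net growth.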

Consider `CC(C)Cc1cc2c(cc1O)CCC1C2CC[C@@]2(C)C1CC[C@@H]2O` (stereo not given in full), for which the TGI in the experiment with SF-539 CNS came to 40.6 µM; in the experiment with IGROV1 ovarian, 33.1 µM; with EKVX NSCLC, 26.3 µM; with SK-OV-3 ovarian, 24.3 µM; with SK-MEL-5 melanoma, 20.3 µM; in the experiment on CAKI-1 renal, 35.6 µM. In addition, the TGI turned out to be 16.3 µM in the experiment on RXF 393 renal, 33.3 µM in the experiment with SNB-75 CNS, 20 µM with ACHN renal and 24.3 µM in the experiment on OVCAR-4 ovarian.

Take `CCOC(=O)C(C(=S)SC)c1nn2c(=O)cc(C)nc2s1` (stereo not given): the TGI with SF-539 CNS is 36 µM; in the experiment with IGROV1 ovarian, 38.1 µM; with EKVX NSCLC, 34.3 µM; with SK-OV-3 ovarian it was 47.4 µM; in the experiment on SK-MEL-5 melanoma, 35.1 µM; with CAKI-1 renal, 37.3 µM. Besides, the TGI was determined as 39.8 µM in the experiment on RXF 393 renal, 41.3 µM in the experiment on SNB-75 CNS, 37.8 µM in the experiment with ACHN renal and 58.4 µM with OVCAR-4 ovarian.

With `CCN(CC)Cc1c(/C=C\c2cc(OC)c(OC)c(OC)c2)ccc(OC)c1O`, the TGI with SF-539 CNS is 9.24 µM; with IGROV1 ovarian it was above 78.5 µM; in the experiment with EKVX NSCLC, above 93.5 µM; in the experiment with SK-OV-3 ovarian, 10.2 µM; with SK-MEL-5 melanoma, above 83.7 µM; in the experiment on CAKI-1 renal, above 100 µM. Besides, the TGI in the experiment with RXF 393 renal was 9.35 µM; in the experiment with SNB-75 CNS, 9.49 µM; in the experiment with ACHN renal it was above 100 µM; with OVCAR-4 ovarian, above 75.5 µM.
